{
  "source": "BigSolDB 2.1",
  "data": [
    {"smiles": "CN1CCN(C(=O)O[C@H]2c3nccnc3C(=O)N2c2ccc(Cl)cn2)CC1", "values": [
      {"measurement": "solubility (mole fraction)", "setting": "in acetone, 288.15 K", "result": 0.0013},
      {"measurement": "solubility (mole fraction)", "setting": "in acetone, 293.15 K", "result": 0.0015},
      {"measurement": "solubility (mole fraction)", "setting": "in acetone, 298.15 K", "result": 0.0019},
      {"measurement": "solubility (mole fraction)", "setting": "in acetone, 303.15 K", "result": 0.0023},
      {"measurement": "solubility (mole fraction)", "setting": "in acetone, 308.15 K", "result": 0.0027},
      {"measurement": "solubility (mole fraction)", "setting": "in acetone, 313.15 K", "result": 0.0032},
      {"measurement": "solubility (mole fraction)", "setting": "in acetone, 318.15 K", "result": 0.0037},
      {"measurement": "solubility (mole fraction)", "setting": "in ethanol, 288.15 K", "result": 0.0002},
      {"measurement": "solubility (mole fraction)", "setting": "in ethanol, 293.15 K", "result": 0.0003},
      {"measurement": "solubility (mole fraction)", "setting": "in ethanol, 298.15 K", "result": 0.0004},
      {"measurement": "solubility (mole fraction)", "setting": "in ethanol, 303.15 K", "result": 0.0004},
      {"measurement": "solubility (mole fraction)", "setting": "in ethanol, 308.15 K", "result": 0.0005},
      {"measurement": "solubility (mole fraction)", "setting": "in ethanol, 313.15 K", "result": 0.0007},
      {"measurement": "solubility (mole fraction)", "setting": "in ethanol, 318.15 K", "result": 0.0009},
      {"measurement": "solubility (mole fraction)", "setting": "in ethanol, 323.15 K", "result": 0.001},
      {"measurement": "solubility (mole fraction)", "setting": "in ethanol, 328.15 K", "result": 0.0012}
    ]}
  ]
}
